Data set [1] deals with T1, CYP1B1 (Homo sapiens, UniProt Q16678).
T1 sequence (Q16678 whole entry): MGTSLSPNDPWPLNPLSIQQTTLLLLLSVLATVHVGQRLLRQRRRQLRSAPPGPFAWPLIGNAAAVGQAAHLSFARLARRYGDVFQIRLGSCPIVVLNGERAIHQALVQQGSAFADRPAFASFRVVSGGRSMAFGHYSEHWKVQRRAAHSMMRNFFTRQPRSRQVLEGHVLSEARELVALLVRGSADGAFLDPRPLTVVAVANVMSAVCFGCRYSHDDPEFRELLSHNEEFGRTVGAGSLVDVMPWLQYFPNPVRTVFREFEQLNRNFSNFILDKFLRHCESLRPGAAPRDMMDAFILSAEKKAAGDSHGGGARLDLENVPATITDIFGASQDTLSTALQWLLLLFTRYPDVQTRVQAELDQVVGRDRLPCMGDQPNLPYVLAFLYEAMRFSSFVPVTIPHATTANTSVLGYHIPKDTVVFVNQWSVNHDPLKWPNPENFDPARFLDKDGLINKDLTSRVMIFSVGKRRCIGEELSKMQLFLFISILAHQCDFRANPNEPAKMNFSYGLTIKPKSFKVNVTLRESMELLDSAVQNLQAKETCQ
In words: Inhibition of recombinant human CYP1B1 at 0.3 uM incubated for 45 mins using 7-ethyl-O-resorufin substrate in presence of NADPH regenerating system by fluorescence based ethoxyresorufin-O-deethylase assay. The following applies: recombinant human CYP1B1, probe 7-ethyl-O-resorufin (7-ethoxyresorufin).

Data set [2] has as its target T1, CYP1B1. In words: Inhibition of recombinant human CYP1B1 at 3 uM incubated for 45 mins using 7-ethyl-O-resorufin substrate in presence of NADPH regenerating system by fluorescence based ethoxyresorufin-O-deethylase assay. The settings on record: recombinant human CYP1B1, probe 7-ethyl-O-resorufin (7-ethoxyresorufin).
The target in data set [3] is T2, CYP1A1 (Homo sapiens, UniProt P04798).
T2 sequence (P04798 whole entry): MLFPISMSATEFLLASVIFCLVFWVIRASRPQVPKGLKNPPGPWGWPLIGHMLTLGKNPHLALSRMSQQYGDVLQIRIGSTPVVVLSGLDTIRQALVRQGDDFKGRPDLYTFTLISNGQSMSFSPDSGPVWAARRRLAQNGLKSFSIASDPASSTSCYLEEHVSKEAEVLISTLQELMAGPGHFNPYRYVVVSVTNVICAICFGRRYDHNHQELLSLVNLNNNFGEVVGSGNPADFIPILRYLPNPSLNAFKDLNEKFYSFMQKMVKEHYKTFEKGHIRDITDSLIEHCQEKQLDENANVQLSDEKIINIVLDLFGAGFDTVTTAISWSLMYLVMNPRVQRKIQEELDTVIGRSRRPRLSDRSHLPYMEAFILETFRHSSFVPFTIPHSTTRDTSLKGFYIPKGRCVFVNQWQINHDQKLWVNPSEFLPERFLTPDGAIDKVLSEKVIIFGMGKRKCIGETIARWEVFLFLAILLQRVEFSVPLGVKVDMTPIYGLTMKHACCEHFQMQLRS
Nature of the data set: Inhibition of recombinant human CYP1A1 at 0.3 uM incubated for 25 mins using 7-ethyl-O-resorufin substrate in presence of NADPH regenerating system by fluorescence based ethoxyresorufin-O-deethylase assay. It counts as ADME. The settings on record: recombinant human CYP1A1, probe 7-ethyl-O-resorufin (7-ethoxyresorufin).

Data set [4] has as its target T2, CYP1A1. Nature of the data set: Inhibition of recombinant human CYP1A1 at 3 uM incubated for 25 mins using 7-ethyl-O-resorufin substrate in presence of NADPH regenerating system by fluorescence based ethoxyresorufin-O-deethylase assay. It counts as ADME. The settings on record: recombinant human CYP1A1, probe 7-ethyl-O-resorufin (7-ethoxyresorufin).

For `C[C@]12CC[C@@H]3c4ccc(SCc5cccnc5)cc4CC[C@H]3[C@@H]1CCC2=O`, on CYP1B1 [1], the inhibition (as a rule, the drop in the measured response relative to a control, in per cent) at 0.75 h, 0.3 µM was determined as 48%. In addition, the inhibition at 0.75 h, 3 µM at CYP1B1 [2] worked out at 87%. For the same compound, on CYP1A1 [3], the inhibition at 25 min, 0.3 µM was determined as 9%. Also, the inhibition at 25 min, 3 µM on CYP1A1 [4] came out at 36%.
The corresponding values for `C[C@]12CC[C@@H]3c4cc(-c5cccc(F)c5)c(O)cc4CC[C@H]3[C@@H]1CC[C@@H]2O` are 88%, 101%, 12% and 48%.
`C[C@]12CC[C@@H]3c4cc(-c5ccc(O)cc5)c(O)cc4CC[C@H]3[C@@H]1CCC2=O`: the inhibition at 0.75 h, 0.3 µM on CYP1B1 [1] amounted to 19%. In addition, the inhibition at 0.75 h, 3 µM at CYP1B1 [2] was determined as 30%.
`COc1ccc(-c2cc3c(cc2O)CC[C@@H]2[C@@H]3CC[C@]3(C)C(=O)CC[C@@H]23)cc1`: on CYP1B1 [1], the inhibition at 0.75 h, 0.3 µM came to 95%. On CYP1B1 [2], the inhibition at 0.75 h, 3 µM was 103%. Besides, the inhibition at 25 min, 0.3 µM on CYP1A1 [3] amounted to 8%. For the same compound, at CYP1A1 [4], the inhibition at 25 min, 3 µM came out at 18%.
For `C[C@]12CC[C@@H]3c4cc(-c5ccc(F)cc5)c(O)cc4CC[C@H]3[C@@H]1CCC2=O` the same measures were 71%, 101%, 2% and 8%.
The corresponding values for `C[C@]12CC[C@@H]3c4cc(-c5cccc(Cl)c5)c(O)cc4CC[C@H]3[C@@H]1CC[C@@H]2O` are 91%, 100%, 16% and 51%.
Regarding `C[C@]12CC[C@@H]3c4cc(-c5cccc(O)c5)c(O)cc4CC[C@H]3[C@@H]1CCC2=O`, at CYP1B1 [1], the inhibition at 0.75 h, 0.3 µM came to 92%. For the same compound, the inhibition at 0.75 h, 3 µM at CYP1B1 [2] was 103%. At CYP1A1 [3], the inhibition at 25 min, 0.3 µM was determined as 10%. Besides, the inhibition at 25 min, 3 µM at CYP1A1 [4] stood at 39%.
The corresponding values for `C[C@]12CC[C@@H]3c4cc(-c5ccc(Cl)cc5)c(O)cc4CC[C@H]3[C@@H]1CCC2=O` are 79%, 101%, 9% and 5%.
As for `C[C@]12CC[C@@H]3c4cc(-c5ccccc5)c(O)cc4CC[C@H]3[C@@H]1CCC2=O`, on CYP1B1 [1], the inhibition at 0.75 h, 0.3 µM is 69%. For the same compound, the inhibition at 0.75 h, 3 µM at CYP1B1 [2] was determined as 101%. The inhibition at 25 min, 0.3 µM on CYP1A1 [3] was 5%. The inhibition at 25 min, 3 µM at CYP1A1 [4] is 16%.
With `C[C@]12CC[C@@H]3c4cc(-c5cccc(F)c5)c(O)cc4CC[C@H]3[C@@H]1CCC2=O`, the inhibition at 0.75 h, 0.3 µM at CYP1B1 [1] came out at 67%. In addition, the inhibition at 0.75 h, 3 µM at CYP1B1 [2] was 101%. For the same compound, at CYP1A1 [3], the inhibition at 25 min, 0.3 µM was found to be 3%. In addition, the inhibition at 25 min, 3 µM on CYP1A1 [4] stood at 23%.
As for `CSc1ccc2c(c1)CC[C@@H]1[C@@H]2CC[C@]2(C)C(=O)CC[C@@H]12`, the inhibition at 0.75 h, 0.3 µM at CYP1B1 [1] is 14%. For the same compound, the inhibition at 0.75 h, 3 µM on CYP1B1 [2] was found to be 34%.
For the compound `C[C@]12CC[C@@H]3c4cc(-c5ccc(F)c(F)c5)c(O)cc4CC[C@H]3[C@@H]1CCC2=O`, the inhibition at 0.75 h, 0.3 µM at CYP1B1 [1] came to 77%. Besides, the inhibition at 0.75 h, 3 µM on CYP1B1 [2] was found to be 100%. In addition, the inhibition at 25 min, 0.3 µM on CYP1A1 [3] is 1%. The inhibition at 25 min, 3 µM at CYP1A1 [4] turned out to be 15%.
`C[S+]([O-])c1ccc2c(c1)CC[C@@H]1[C@@H]2CC[C@]2(C)[C@@H](O)CC[C@@H]12` (stereo not given in full): the inhibition at 0.75 h, 0.3 µM at CYP1B1 [1] is 10%. Besides, the inhibition at 0.75 h, 3 µM at CYP1B1 [2] came out at 25%.
With `C[C@]12CC[C@@H]3c4cc(-c5ccccc5)c(O)cc4CC[C@H]3[C@@H]1CC[C@@H]2O`, the inhibition at 0.75 h, 0.3 µM on CYP1B1 [1] was determined as 82%. Also, the inhibition at 0.75 h, 3 µM at CYP1B1 [2] was 101%. Also, on CYP1A1 [3], the inhibition at 25 min, 0.3 µM came out at 9%. Moreover, on CYP1A1 [4], the inhibition at 25 min, 3 µM was 45%.
For `COc1ccc(-c2cc3c(cc2OC)CC[C@@H]2[C@@H]3CC[C@]3(C)[C@@H](OC)CC[C@@H]23)cc1` the same measures were 11%, 20%, 1% and 5%.
As for `C[C@]12CC[C@@H]3c4cc(-c5ccc(Cl)cc5)c(O)cc4CC[C@H]3[C@@H]1CC[C@@H]2O`, the inhibition at 0.75 h, 0.3 µM at CYP1B1 [1] is 96%. The inhibition at 0.75 h, 3 µM at CYP1B1 [2] worked out at 99%. Besides, the inhibition at 25 min, 0.3 µM at CYP1A1 [3] was 12%. For the same compound, the inhibition at 25 min, 3 µM on CYP1A1 [4] worked out at 63%.
Take `CSc1ccc2c(c1)CC[C@@H]1[C@@H]2CC[C@]2(C)[C@@H](O)CC[C@@H]12`: on CYP1B1 [1], the inhibition at 0.75 h, 0.3 µM was 5%. Further, the inhibition at 0.75 h, 3 µM at CYP1B1 [2] was 26%.
For `C[C@]12CC[C@@H]3c4cc(-c5cccnc5)c(O)cc4CC[C@H]3[C@@H]1CCC2=O`, on CYP1B1 [2], the inhibition at 0.75 h, 3 µM came to 90%.
In the case of `COc1ccc(-c2cc3c(cc2OC)CC[C@@H]2[C@@H]3CC[C@@]3(C)[C@H]2CC[C@]3(C)O)cc1`, the inhibition at 0.75 h, 0.3 µM at CYP1B1 [1] turned out to be 8%. Further, the inhibition at 0.75 h, 3 µM on CYP1B1 [2] was 46%. Further, the inhibition at 25 min, 0.3 µM at CYP1A1 [3] came out at 2%. The inhibition at 25 min, 3 µM on CYP1A1 [4] was 6%.
Turning to `C[S+]([O-])c1ccc2c(c1)CC[C@@H]1[C@@H]2CC[C@]2(C)C(=O)CC[C@@H]12` (stereo not given in full), at CYP1B1 [1], the inhibition at 0.75 h, 0.3 µM is 16%. Besides, the inhibition at 0.75 h, 3 µM on CYP1B1 [2] worked out at 57%.
Consider `C[C@]12CC[C@@H]3c4cc(-c5cccnc5)c(O)cc4CC[C@H]3[C@@H]1CC[C@@H]2O`, for which the inhibition at 0.75 h, 3 µM on CYP1B1 [2] worked out at 100%. In addition, on CYP1A1 [3], the inhibition at 25 min, 0.3 µM amounted to 53%. Moreover, the inhibition at 25 min, 3 µM at CYP1A1 [4] stood at 77%.
As to `C#C[C@]1(O)CC[C@H]2[C@@H]3CCc4cc(OC)c(-c5ccc(OC)cc5)cc4[C@H]3CC[C@@]21C`, the inhibition at 0.75 h, 0.3 µM at CYP1B1 [1] is 6%. Besides, on CYP1B1 [2], the inhibition at 0.75 h, 3 µM is 55%. The inhibition at 25 min, 0.3 µM at CYP1A1 [3] turned out to be 4%. The inhibition at 25 min, 3 µM on CYP1A1 [4] turned out to be 9%.
The corresponding values for `C[C@]12CC[C@@H]3c4cc(-c5cccc(Cl)c5)c(O)cc4CC[C@H]3[C@@H]1CCC2=O` are 74%, 100%, 5% and 11%.
With `C[C@]12CC[C@@H]3c4cc(-c5ccc(F)c(F)c5)c(O)cc4CC[C@H]3[C@@H]1CC[C@@H]2O`, the inhibition at 0.75 h, 0.3 µM on CYP1B1 [1] amounted to 92%. The inhibition at 0.75 h, 3 µM at CYP1B1 [2] came out at 100%. On CYP1A1 [3], the inhibition at 25 min, 0.3 µM was determined as 2%. The inhibition at 25 min, 3 µM at CYP1A1 [4] was determined as 47%.
For `C[C@]12CC[C@@H]3c4cc(-c5cccc(O)c5)c(O)cc4CC[C@H]3[C@@H]1CC[C@@H]2O` the same measures were 96%, 100%, 10% and 57%.
On to `C[C@]12CC[C@@H]3c4cc(-c5ccncc5)c(O)cc4CC[C@H]3[C@@H]1CCC2=O`, for which the inhibition at 0.75 h, 3 µM on CYP1B1 [2] came to 55%.
As for `C[C@]12CC[C@@H]3c4ccc(S(C)(=O)=O)cc4CC[C@H]3[C@@H]1CC[C@@H]2O`, the inhibition at 0.75 h, 0.3 µM at CYP1B1 [1] was 0%. The inhibition at 0.75 h, 3 µM on CYP1B1 [2] was 5%.
For `C[C@]12CC[C@@H]3c4cc(-c5cccc(N)c5)c(O)cc4CC[C@H]3[C@@H]1CCC2=O` the same measures were 36% and 55%.
`COc1cccc(-c2cc3c(cc2O)CC[C@@H]2[C@@H]3CC[C@]3(C)C(=O)CC[C@@H]23)c1`: the inhibition at 0.75 h, 0.3 µM at CYP1B1 [1] was found to be 48%. Further, the inhibition at 0.75 h, 3 µM on CYP1B1 [2] is 81%.
For `C[C@]12CC[C@@H]3c4ccc(S(C)(=O)=O)cc4CC[C@H]3[C@@H]1CCC2=O` the same measures were 7% and 7%.

For the origin of these results see ChEMBL document CHEMBL4196212, “Targeting Cytochrome P450 (CYP) 1B1 Enzyme with Four Series of A-Ring Substituted Estrane Derivatives: Design, Synthesis, Inhibitory Activity, and Selectivity” (J Med Chem, 2018).
